Test results reported in ChEMBL document CHEMBL1201862, “PubChem BioAssay data set” (2004).
Activity calls are given as the source filed them.

What was measured:
[1] = biological target: T1, Rac GTPase-activating protein 1 (Homo sapiens, UniProt Q9H0H5); assay: blockers of MgcRacGAP-driven Rac1 GTP hydrolysis – biochemical, ADP Hunter fluorescence, primary and confirmatory, confirmation (AID 624330); assay type: functional
T1 sequence (Q9H0H5 whole entry): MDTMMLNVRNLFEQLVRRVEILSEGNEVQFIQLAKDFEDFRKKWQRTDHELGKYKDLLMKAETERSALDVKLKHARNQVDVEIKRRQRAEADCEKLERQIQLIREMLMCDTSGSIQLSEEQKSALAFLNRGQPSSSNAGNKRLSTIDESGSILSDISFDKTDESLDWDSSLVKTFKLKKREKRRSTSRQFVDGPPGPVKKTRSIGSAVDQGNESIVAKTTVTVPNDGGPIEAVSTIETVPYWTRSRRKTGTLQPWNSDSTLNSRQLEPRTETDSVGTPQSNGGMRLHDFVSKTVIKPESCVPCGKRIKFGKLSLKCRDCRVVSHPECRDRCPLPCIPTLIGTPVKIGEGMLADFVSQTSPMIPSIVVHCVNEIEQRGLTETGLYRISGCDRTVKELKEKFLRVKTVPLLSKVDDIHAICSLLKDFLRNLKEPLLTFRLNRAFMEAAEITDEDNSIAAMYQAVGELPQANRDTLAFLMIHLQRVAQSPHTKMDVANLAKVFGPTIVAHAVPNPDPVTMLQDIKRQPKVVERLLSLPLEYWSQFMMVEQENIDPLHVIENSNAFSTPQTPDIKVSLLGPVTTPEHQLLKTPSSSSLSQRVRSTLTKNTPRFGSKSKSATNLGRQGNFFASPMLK

[2] = biological target: T2, Small ubiquitin-related modifier 1 (Homo sapiens, UniProt P63165); assay: SUMO1 protein-protein binding blockers, potency – biochemical, FRET, dose response (AID 624383); assay type: functional; settings: read-out: IC50_Mean
Genome polyprotein = Genome polyprotein (dengue virus type 2, UniProt P29990); assay: flavivirus cap methylation enzyme inhibition – biochemical, confirmation dose response, primary screen (AID 588689); assay type: functional
[3] = biological target: T2, Small ubiquitin-related modifier 1; assay: SUMO1 protein interaction blockers, potency – biochemical, fluorescence polarization, uHTS hits, dose response (AID 624382); assay type: functional; settings: read-out: IC50_Mean
[4] = viability loss of HMLE_sh_eGFP cells – cell-based, luminescence, counter-screen for HMLE_sh_ECad selective toxicity project, dose response (AID 463074); assay type: functional, Homo sapiens;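 also: HMLE human mammary epithelial cells expressing control shRNA against eGFP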
Melanocortin receptor 4 = Melanocortin receptor 4 (Homo sapiens, UniProt P32245); assay type: functional, cell-based;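 also: Cell-based assay with luminescence read-out, confirmatory dose-response testing for agonist activity of biased ligands at MC4R; human U2OS cells with tagged receptor and beta-arrestin; potency of agonists that increase receptor coupling to beta-arrestin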
[5] = Luminescence Cell-Based Dose Retest to Confirm Inhibitors of Cancer Stem Cells. [Related pubchem assays (depositor defined):AID2717, AID2721]; assay type: functional; settings: Homo sapiens
[6] = biological target: T3, Low molecular weight phosphotyrosine protein phosphatase (Homo sapiens, UniProt P24666); assay type: functional; settings: read-out: IC50_Mean
T3 sequence (P24666 whole entry): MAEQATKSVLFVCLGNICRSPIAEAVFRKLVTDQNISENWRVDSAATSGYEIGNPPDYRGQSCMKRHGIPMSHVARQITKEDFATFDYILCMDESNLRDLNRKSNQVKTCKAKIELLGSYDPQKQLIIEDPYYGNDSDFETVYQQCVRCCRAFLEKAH

[7] = NIH3T3 cell viability loss – ATP luminescence, mouse fibroblasts, counter-screen, dose response (AID 2010); assay type: functional, cell-based;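 also: cells exposed to compound for about 90 hours before reading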
[8] = Trypanosoma cruzi growth suppression in host cells – NIH3T3 host cells, beta-gal luminescence, confirmation (AID 2044); assay type: functional, cell-based;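 also: intracellular parasites grown in NIH/3T3 mouse fibroblasts as host cells; luminescent beta-galactosidase reporter signal from transgenic T. cruzi replicating inside host cells; inhibitors lower the luminescence signal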
[9] = biological target: T3, Low molecular weight phosphotyrosine protein phosphatase; assay type: functional; settings: read-out: IC50_Mean; remark: listed apart in the source
[10] = biological target: T4, Methionyl-tRNA synthetase, putative (Trypanosoma brucei brucei, UniProt Q38C91); assay type: functional, Trypanosoma brucei brucei strain 927/4 GUTat10.1
T4 sequence (Q38C91 whole entry): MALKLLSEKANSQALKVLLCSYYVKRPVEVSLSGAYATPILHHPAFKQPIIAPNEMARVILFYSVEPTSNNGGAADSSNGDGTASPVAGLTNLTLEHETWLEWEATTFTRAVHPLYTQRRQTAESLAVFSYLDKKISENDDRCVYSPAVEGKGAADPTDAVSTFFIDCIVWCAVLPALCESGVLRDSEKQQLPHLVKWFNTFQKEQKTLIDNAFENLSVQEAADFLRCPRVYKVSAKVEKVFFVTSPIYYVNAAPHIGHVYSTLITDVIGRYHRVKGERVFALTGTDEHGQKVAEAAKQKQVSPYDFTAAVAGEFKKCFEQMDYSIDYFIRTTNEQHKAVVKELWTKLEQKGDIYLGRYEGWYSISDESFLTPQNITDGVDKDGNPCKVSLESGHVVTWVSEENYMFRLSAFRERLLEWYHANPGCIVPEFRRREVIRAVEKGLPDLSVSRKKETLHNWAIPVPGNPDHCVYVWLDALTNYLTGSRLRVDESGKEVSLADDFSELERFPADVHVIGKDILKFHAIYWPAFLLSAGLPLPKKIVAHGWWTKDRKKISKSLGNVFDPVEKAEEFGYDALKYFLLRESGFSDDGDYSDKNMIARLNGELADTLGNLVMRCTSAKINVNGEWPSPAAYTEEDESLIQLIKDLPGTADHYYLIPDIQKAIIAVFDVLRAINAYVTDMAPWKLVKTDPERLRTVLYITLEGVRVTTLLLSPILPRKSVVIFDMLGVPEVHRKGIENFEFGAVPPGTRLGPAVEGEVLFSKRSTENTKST

[11] = biological target: T4, Methionyl-tRNA synthetase, putative; assay type: functional, Trypanosoma brucei brucei strain 927/4 GUTat10.1; remark: listed apart in the source
[12] = Counterscreen for inhibitors of Trypanosoma brucei methionyl tRNA synthetase (MetRS): Luminescence-based cell-based high throughput dose response assay to identify compounds that are cytotoxic to Jurkat human T lymphocyte cells.; assay type: functional
[13] = biological target: Glucose-6-phosphate 1-dehydrogenase (Homo sapiens, UniProt P11413); assay: inhibition of Homo sapiens G6PD, dose series – biochemical, fluorescence, selectivity assay for P. falciparum G6PD inhibitor project, dose response (AID 504792); assay type: functional
[14] = Fluorescence-based cell-based high throughput dose response assay for inhibitors of the interaction of nucleotide-binding oligomerization domain containing 2 (NOD2) and the receptor-interacting serine-threonine kinase 2 (RIPK2).; assay type: functional; settings: Homo sapiens
Hexokinase = biological target: T5, Hexokinase (Trypanosoma brucei, UniProt Q38C41); assay: Confirmation assay for inhibitors of Trypanosoma brucei hexokinase 1-Analogue-first series. [Related pubchem assays (depositor defined):AID1430, AID1632, AID2516, AID2560, AID2579, AID2600, AID449725, AID492951]; assay type: functional
T5 sequence (Q38C41 whole entry): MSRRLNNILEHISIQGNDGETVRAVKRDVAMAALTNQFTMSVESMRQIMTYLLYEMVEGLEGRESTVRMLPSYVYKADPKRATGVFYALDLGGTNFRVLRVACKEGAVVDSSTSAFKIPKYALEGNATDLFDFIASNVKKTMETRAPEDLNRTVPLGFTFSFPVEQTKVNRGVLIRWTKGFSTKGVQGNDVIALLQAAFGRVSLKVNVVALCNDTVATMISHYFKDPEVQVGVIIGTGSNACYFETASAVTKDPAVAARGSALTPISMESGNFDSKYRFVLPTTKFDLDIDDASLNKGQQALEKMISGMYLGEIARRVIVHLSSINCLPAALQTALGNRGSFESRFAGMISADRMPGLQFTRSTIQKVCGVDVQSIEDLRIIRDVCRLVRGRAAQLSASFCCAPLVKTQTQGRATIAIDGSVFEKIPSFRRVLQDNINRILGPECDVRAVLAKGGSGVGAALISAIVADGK

[15] = biological target: Arf-GAP with SH3 domain, ANK repeat and PH domain-containing protein 1 (Homo sapiens, UniProt Q9ULH1); assay type: functional;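 also: biochemical fluorescence polarization dose–response screen measuring inhibition of ASAP1; ASAP1 GAP domain stimulating GTP hydrolysis by truncated human ARF1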
Steroidogenic factor 1 = Steroidogenic factor 1 (Homo sapiens, UniProt Q13285); assay: Counterscreen for inverse agonists of the liver receptor homolog-1 (LRH-1; NR5A2): Luminescence-based cell-based high throughput dose response assay to identify inverse agonists of the Steroidogenic Factor 1 Nuclear Receptor (SF1; NR5A1).; assay type: functional
[16] = biological target: Nuclear receptor subfamily 5 group A member 2 (Homo sapiens, UniProt O00482); assay type: functional, cell-based;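 also: HEK293T cells transfected with LRH-1 and a StAR promoter luciferase reporter; potency for inhibitors that lower LRH-1 driven reporter light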
[17] = nonselective StAR promoter luciferase inhibitors – cell-based, luminescence, luciferase reporter, counter-screen for LRH-1 inverse agonist project, dose response (AID 651969); assay type: functional
[18] = bead-based luminescence quenchers, dual-tagged ARNT – biochemical, AlphaScreen, cherry-pick, artefact control for ARNT-TACC3 interaction inhibitor project, dose response (AID 651705); assay type: functional;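 also: AlphaScreen bead proximity signal that flags compounds interfering with the detection technology; potency reflects signal decrease which marks the compound as an assay artifact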
[19] = biological target: Tyrosine-protein phosphatase non-receptor type 11 (Homo sapiens, UniProt Q06124); assay: PTPN11 enzyme inhibitors – biochemical, selectivity assay for STEP inhibitor project, dose response (AID 602367); assay type: functional; settings: read-out: IC50_Mean
[20] = biological target: Tyrosine-protein phosphatase non-receptor type 5 (Homo sapiens, UniProt P54829); assay: PTPN5 enzyme inhibition – biochemical, fluorescence intensity, uHTS hits, confirmation (AID 602372); assay type: functional; settings: read-out: IC50_Mean
[21] = biological target: Dual specificity protein phosphatase 3 (Homo sapiens, UniProt P51452); assay: VHR phosphatase inhibition, dose response, selectivity assay for STEP inhibitor project, biochemical (AID 602374); assay type: functional; settings: read-out: IC50_Mean
[22] = biological target: Aryl hydrocarbon receptor (Homo sapiens, UniProt P35869); settings: Potency;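 also: confirmatory quantitative high-throughput screen measuring activation of the AhR signaling pathway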
[23] = biological target: Photoreceptor-specific nuclear receptor (Homo sapiens, UniProt Q9Y5X4); assay type: functional, cell-based;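 also: CHO-S cells with Gal4-NCOR and VP16-NR2E3 two-hybrid luciferase reporter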
Vero = assay: viability loss in Vero cells – cell-based, plate reader, cherry-pick samples, cytotoxicity control, dose response (AID 687020); assay type: functional; settings: Chlorocebus sabaeus

T2 sequence (P63165 whole entry): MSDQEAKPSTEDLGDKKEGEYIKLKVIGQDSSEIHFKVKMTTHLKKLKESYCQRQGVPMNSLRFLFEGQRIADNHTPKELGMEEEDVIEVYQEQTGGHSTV
Sequence of Nuclear receptor subfamily 5 group A member 2 (O00482 whole entry): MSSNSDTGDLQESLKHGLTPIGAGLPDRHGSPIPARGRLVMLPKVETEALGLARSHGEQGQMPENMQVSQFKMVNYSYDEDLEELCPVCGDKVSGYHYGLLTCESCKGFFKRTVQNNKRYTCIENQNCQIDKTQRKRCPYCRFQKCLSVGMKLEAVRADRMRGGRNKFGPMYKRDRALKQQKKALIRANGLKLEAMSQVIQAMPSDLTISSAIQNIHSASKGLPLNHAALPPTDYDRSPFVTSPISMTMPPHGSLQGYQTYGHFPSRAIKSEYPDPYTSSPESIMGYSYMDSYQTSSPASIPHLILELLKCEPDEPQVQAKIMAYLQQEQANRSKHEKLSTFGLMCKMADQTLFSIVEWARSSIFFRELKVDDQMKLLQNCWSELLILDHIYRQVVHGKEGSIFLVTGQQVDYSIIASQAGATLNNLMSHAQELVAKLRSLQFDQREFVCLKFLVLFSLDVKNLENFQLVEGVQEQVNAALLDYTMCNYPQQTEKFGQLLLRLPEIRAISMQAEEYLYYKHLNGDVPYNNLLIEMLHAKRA
Sequence of Steroidogenic factor 1 (Q13285 whole entry): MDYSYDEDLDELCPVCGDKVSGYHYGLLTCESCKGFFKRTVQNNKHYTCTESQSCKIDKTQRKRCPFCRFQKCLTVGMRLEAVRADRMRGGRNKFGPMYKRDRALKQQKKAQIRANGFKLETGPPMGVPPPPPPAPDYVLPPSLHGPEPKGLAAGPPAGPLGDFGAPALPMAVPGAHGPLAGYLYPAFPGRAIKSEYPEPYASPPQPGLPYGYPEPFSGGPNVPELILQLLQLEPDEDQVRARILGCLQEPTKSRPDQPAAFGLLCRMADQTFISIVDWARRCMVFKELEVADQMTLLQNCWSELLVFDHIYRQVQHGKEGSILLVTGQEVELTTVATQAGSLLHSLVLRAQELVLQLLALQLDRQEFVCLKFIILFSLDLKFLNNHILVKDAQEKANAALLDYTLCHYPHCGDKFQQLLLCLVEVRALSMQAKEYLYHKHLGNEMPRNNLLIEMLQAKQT
Sequence of Aryl hydrocarbon receptor (P35869 whole entry, the tested form may be a part): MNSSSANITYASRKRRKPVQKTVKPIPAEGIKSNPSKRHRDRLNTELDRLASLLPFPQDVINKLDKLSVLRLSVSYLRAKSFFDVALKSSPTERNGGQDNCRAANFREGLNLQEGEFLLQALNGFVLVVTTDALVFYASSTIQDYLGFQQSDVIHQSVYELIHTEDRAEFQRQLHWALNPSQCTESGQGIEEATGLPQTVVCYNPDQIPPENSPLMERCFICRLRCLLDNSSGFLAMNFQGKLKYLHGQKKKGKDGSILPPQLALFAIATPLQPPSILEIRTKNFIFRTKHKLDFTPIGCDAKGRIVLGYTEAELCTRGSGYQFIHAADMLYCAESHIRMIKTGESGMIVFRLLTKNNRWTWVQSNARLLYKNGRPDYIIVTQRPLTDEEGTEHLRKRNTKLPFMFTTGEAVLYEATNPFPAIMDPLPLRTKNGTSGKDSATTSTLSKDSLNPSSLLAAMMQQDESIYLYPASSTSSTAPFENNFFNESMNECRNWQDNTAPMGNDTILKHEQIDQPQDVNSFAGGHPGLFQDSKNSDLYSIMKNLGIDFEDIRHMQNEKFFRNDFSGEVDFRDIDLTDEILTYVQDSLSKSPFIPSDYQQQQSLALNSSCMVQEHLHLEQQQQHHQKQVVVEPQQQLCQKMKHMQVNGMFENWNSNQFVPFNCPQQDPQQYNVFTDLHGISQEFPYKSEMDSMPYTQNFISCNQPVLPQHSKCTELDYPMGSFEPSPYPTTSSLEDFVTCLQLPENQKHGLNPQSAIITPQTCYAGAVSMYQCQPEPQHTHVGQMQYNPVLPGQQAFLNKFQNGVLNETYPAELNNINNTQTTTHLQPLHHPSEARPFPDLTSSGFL
Sequence of Dual specificity protein phosphatase 3 (P51452 whole entry): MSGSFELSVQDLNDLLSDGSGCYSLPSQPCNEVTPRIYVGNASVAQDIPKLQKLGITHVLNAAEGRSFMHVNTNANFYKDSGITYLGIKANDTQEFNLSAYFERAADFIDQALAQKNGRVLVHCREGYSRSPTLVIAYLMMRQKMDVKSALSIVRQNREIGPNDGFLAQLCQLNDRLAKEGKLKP
Sequence of Genome polyprotein (P29990 2492-3391 limits assumed): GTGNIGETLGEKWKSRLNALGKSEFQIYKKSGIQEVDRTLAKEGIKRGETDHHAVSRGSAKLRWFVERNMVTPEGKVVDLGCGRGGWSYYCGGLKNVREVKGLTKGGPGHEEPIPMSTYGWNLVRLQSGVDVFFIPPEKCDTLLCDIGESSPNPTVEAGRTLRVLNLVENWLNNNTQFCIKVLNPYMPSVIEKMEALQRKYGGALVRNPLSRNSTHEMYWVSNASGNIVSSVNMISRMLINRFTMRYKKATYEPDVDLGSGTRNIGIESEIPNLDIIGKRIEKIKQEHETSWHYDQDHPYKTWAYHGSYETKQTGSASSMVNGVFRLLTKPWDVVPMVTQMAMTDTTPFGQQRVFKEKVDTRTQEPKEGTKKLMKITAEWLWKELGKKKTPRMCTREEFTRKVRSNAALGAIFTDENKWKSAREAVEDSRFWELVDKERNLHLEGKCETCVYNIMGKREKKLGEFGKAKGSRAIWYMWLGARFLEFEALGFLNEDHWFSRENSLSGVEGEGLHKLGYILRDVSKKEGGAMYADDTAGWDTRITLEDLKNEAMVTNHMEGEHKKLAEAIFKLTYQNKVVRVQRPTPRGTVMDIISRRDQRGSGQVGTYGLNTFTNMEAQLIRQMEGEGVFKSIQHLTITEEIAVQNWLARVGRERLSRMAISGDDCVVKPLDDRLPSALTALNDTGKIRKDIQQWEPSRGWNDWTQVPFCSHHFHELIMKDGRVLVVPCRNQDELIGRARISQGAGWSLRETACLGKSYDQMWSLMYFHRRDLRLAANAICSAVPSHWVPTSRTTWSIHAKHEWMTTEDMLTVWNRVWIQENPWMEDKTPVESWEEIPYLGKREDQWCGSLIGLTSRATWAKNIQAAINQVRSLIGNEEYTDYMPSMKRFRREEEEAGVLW
Sequence of Photoreceptor-specific nuclear receptor (Q9Y5X4 whole entry, the tested form may be a part): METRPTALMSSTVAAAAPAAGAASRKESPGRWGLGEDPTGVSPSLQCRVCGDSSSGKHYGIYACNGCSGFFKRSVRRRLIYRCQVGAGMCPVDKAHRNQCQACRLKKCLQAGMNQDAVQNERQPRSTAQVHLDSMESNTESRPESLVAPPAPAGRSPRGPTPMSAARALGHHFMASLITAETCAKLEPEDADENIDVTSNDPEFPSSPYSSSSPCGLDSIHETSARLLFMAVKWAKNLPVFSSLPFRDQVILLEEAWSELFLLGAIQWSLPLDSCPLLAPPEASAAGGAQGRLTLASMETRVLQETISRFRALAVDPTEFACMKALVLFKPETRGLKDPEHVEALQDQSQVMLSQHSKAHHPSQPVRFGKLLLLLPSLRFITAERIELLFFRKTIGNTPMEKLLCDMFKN
Sequence of Melanocortin receptor 4 (P32245 whole entry): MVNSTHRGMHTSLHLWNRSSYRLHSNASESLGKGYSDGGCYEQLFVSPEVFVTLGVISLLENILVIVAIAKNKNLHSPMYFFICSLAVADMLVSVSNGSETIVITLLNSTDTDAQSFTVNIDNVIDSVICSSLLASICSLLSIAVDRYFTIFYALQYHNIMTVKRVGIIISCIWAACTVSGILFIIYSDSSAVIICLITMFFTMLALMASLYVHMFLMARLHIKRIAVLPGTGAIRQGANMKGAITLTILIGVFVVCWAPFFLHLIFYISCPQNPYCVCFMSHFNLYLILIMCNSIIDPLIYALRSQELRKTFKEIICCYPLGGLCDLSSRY
Sequence of Glucose-6-phosphate 1-dehydrogenase (P11413 whole entry, the tested form may be a part): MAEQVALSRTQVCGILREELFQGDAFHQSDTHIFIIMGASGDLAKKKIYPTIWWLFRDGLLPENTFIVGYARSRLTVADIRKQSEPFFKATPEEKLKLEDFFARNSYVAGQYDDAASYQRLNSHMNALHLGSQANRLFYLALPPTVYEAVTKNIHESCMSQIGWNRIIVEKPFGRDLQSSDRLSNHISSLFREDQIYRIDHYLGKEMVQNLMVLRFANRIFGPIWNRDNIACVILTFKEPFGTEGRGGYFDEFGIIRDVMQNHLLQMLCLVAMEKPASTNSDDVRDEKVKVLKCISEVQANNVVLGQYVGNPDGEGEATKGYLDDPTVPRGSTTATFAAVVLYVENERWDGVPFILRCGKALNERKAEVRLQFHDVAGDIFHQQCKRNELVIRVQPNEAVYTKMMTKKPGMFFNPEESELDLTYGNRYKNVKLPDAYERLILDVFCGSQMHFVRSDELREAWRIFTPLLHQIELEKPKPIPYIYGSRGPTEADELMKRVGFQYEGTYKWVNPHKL
Sequence of Tyrosine-protein phosphatase non-receptor type 5 (P54829 whole entry): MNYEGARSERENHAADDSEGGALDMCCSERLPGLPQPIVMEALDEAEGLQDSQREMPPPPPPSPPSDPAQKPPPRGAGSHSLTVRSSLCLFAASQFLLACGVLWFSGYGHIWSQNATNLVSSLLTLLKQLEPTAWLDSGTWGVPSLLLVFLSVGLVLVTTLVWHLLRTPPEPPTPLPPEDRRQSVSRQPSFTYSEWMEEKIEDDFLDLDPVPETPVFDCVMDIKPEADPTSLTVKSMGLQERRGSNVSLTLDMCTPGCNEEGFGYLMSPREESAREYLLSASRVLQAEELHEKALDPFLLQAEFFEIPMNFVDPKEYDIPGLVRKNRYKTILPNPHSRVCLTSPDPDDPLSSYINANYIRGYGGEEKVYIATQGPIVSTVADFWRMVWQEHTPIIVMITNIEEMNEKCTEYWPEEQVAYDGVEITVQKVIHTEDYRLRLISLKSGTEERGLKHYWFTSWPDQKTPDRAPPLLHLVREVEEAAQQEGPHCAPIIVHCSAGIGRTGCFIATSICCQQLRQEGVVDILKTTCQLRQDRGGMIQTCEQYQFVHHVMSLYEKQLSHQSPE

In the case of `COc1ccccc1Nc1ccc2c(O)cc(S(=O)(=O)O)cc2c1`, the IC50 [1] is reported as 90.4 µM (active), the IC50 [2] is reported as 3.41 µM (active) and the IC50 (Genome polyprotein) is reported as 60.5 µM (active). The IC50 [3] was > 66.6 µM (inactive).
With `COc1cc(/C=C2\Oc3ccc(C#Cc4ccc(O)cc4)cc3C2=O)cc(OC)c1` the AC50 [4] was 29.7 µM (active), the EC50 (Melanocortin receptor 4) was > 89.2 µM (inactive) and the AC50 [5] was 1.41 µM (active).
In the case of `Cc1cc(C)c2c(N)c(C(=O)c3ccc(Cl)c(Cl)c3)sc2n1`, the IC50 [6] is reported as 14.2 µM (active), the EC50 [7] is reported as > 60 µM (not active) and the EC50 [8] is reported as 0.166 µM (active). The IC50 [9] was 4.5 µM (active).
In the case of `OC(COc1ccc2cc(Br)ccc2c1)Cn1ccnc1` (configuration not stated), the EC50 [7] is reported as > 60 µM (not active), the IC50 [10] is reported as 28.2 µM (inactive) and the IC50 [11] is reported as 94.1 µM (inactive). For the same molecule, the EC50 [8] was < 0.1 µM (active), the EC50 (cells) was 0.126 µM (active) and the IC50 [12] was 83.3 µM (inactive).
For `O=C(Cn1sc2ccccc2c1=O)Nc1ccc(Cl)cc1`, the IC50 [13] was 12.5 µM (active), the IC50 [14] was 7.04 µM (active) and the IC50 (Hexokinase) was 12.9 µM (active).
In the case of `COC(=O)c1cccc(Nc2nc(-c3ccncc3)nc3ccccc23)c1`, the IC50 [2] is reported as 4.11 µM (active), the IC50 [15] is reported as 10.5 µM (inactive) and the IC50 [3] is reported as > 66.6 µM (inactive).
With `Cc1nn(CC(=O)Nc2ccc3c(c2)OCCO3)c(C)c1[N+](=O)[O-]` the IC50 (Steroidogenic factor 1) was 3.1 µM (active), the IC50 [16] was 14.3 µM (inactive) and the IC50 [17] was 35.9 µM (inactive).
In the case of `Cc1nnc(O)nc1N/N=C/c1ccco1`, the AC50 [18] is reported as 119 µM (active).
For `Cc1ccccc1N1CCN(C(=S)c2ccc(-c3cccc([N+](=O)[O-])c3)o2)CC1`, the IC50 [19] was 11.3 µM (active), the IC50 [20] was 62.2 µM (inactive) and the IC50 [21] was 4.61 µM (active).
With `COc1ccc(NC(=O)CSc2c(C)nn(-c3nnc(C)c(O)n3)c2C)cc1` the AC50 [18] was 133 µM (active).
In the case of `CCNP(=S)(OC)O/C(C)=C/C(=O)OC(C)C` (configuration not stated) [PROPETAMPHOS], the AC50 [22] is reported as 50.1 µM (inconclusive).
With `COc1ccc([C@@H]2C[C@H]3[C@@H](CN2S(=O)(=O)c2ccccc2)C(=O)C[C@@H](c2cccc(Cl)c2)N3S(=O)(=O)c2ccc(C)cc2)cc1` the IC50 [23] was 39.8 µM (inactive).
In the case of `O=C(c1cccc(Cl)c1)N1CCC2(CC1)NCCc1[nH]cnc12`, the AC50 (Vero) is reported as 34 µM (active).
With `NC(=O)C1CCN(C(=O)COc2ccc3c4c(c(=O)oc3c2)CCCC4)CC1` the IC50 (Steroidogenic factor 1) was 4.4 µM (active), the IC50 [16] was 3.98 µM (active) and the IC50 [17] was 35.9 µM (inactive).
